Laboratory results from patent US20120065123A1, “Synthetic Antibodies” (priority 2009, published 2012).
Like-named read-outs stand apart in the source and are kept apart here. Values belong to the substance of their own block, whether it stands above or below them. Where no end group is shown, it is not given here. The star is where a group is joined. StBu = CC(C)(C)S*

Key:
Type in all cases: binding
[1] = molecular target: T1, Transferrin (Homo sapiens, UniProt P02787); assay: Peptide microarray ranking, labeled transferrin with E. coli lysate competitor; conditions: for Rank -- prewash: array with organic prewash; for Rank - non-prewash: array without organic prewash
T1 sequence (P02787 20-698): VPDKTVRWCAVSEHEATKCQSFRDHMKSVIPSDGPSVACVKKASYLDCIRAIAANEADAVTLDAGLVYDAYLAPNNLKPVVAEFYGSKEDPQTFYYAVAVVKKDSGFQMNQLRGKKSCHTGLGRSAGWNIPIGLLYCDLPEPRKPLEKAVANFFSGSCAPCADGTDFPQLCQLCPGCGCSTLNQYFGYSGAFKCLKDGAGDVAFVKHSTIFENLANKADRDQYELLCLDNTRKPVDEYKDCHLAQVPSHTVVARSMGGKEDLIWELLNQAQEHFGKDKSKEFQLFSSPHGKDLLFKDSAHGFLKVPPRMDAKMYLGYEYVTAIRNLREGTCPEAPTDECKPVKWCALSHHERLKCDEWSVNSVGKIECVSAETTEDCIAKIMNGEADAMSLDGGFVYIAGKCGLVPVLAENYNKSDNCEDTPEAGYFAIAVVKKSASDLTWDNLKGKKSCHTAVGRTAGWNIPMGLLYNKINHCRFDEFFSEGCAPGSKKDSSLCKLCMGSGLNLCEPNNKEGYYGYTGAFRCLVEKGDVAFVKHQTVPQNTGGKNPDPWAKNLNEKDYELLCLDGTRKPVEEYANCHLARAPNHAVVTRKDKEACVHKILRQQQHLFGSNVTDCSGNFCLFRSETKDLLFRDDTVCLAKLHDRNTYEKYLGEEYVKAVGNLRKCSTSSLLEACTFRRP
Procedure: Several polypeptides were identified as candidate affinity elements for synbodies against an arbitrarily chosen protein target, transferrin, by incubating transferrin on the polypeptide microarray in the presence of E. coli lysate competitor. Transferrin was randomly direct-labeled at free amines with Alexa™ 555, and E. coli lysate was randomly direct-labeled at free amines with Alexa™ 647. Three replicate arrays were passivized by applying a mixture of BSA and mercaptohexanol for one hour. The arrays were blocked with unlabelled E. coli lysate for one hour, then washed three times with TBST (0.05% Tween) followed by three times with water. A mixture of labeled transferrin and labeled E. coli lysate was applied to the three replicate arrays and incubated for three hours. The arrays were again washed three times with TBST (0.05% Tween) followed by three times with water, and scanned at 555 nm and 647 nm using an array reader. Polypeptides were ranked as candidates for inclusion as affinity elements of synbodies by computing a score for each polypeptide equal to the mean raw 555 nm intensity over the six replicate features, squared, divided by the mean raw 647 nm intensity over the six replicate features. This simple scoring function tends to favor candidate polypeptides that bind at least moderate affinity, since otherwise the 555 nm intensity would be relatively lower, and that are relatively specific, since otherwise the 647 nm intensity would be relatively higher and contribute to a relatively lower score. Many variations of this ranking and identification process can be used, such as, by way of non-limiting examples, two-color comparisons against other competitors; comparisons with data taken in separate experiments with respect to other targets; and use of scoring functions taking into account other factors, employing other functional relationships, and/or involving statistical analysis and/or preprocessing of data and/or correcting for background fluorescence and/or other factors affecting the accuracy of the measured intensities. Ten polypeptides (Table 1) were identified for further evaluation for use as affinity elements in synbodies by choosing the polypeptides having the highest score (one polypeptide was rejected as difficult to synthesize, so the polypeptides chosen were ten of those having the eleven highest scores).
After preparation of the array in accordance with the methods previously described in Example 2, the array was washed one time for five minutes in 7.33% acetonitrile, 37% isopropanol, 0.55% trifluoroacetic acid, and 55% water. Alexa 555 labeled target protein transferrin was applied, together with Alexa 647 labeled E. coli lysate competitor, to the prewashed array and to an identical array without organic prewash. […] 5,010 on the array without organic prewash, but ranked no. 9601 on the prewashed array. Conversely, peptide TRF-21, shown by SPR analysis to be a relatively strong binder of transferrin, rose in rank from 84 on the non-prewashed array to rank no. 5 on the prewashed array.

[2] = molecular target: T1, Transferrin; assay: SPR solution phase KD of candidate affinity elements, transferrin immobilized (Biacore T100); conditions: steady-state response, 25° C., PBST
Procedure: Transferrin 25 μg/ml in immobilization buffer selected for correct pH was then applied 302 at a flow rate of 5 to 10 μl/min for a contact time of about 5 to 10 minutes, allowing the amine functionality on the transferrin 308 to displace the activated NHS ester and bond to the surface via an amide bond. Finally, ethylene diamine (1M ethylene diamine-HCl at pH 8.5) was applied 304 at a flow rate of 5 to 10 μl/min for a contact time of about 6 to 7 minutes to deactivate any remaining reactive groups on the dextran chip surface. Flow rates and contact times are adjusted as necessary to provide the surface concentration of target desired for the intended application, and may vary by target. In general, for evaluating whether binding occurs, it is preferable to immobilize a relatively large quantity of target, and higher flow rates and/or longer contact times may be used. For determining kinetics, it is preferable to limit the amount of target immobilized so as to minimize rebinding and avidity effects, and lower flow rates and/or contact times may be used.
Candidate affinity elements for the transferrin synbody TRF19, TRF21, TRF23, TRF24, TRF25, and TRF26 were individually evaluated for solution phase KD with respect to transferrin by SPR analysis. Because the off rates for these polypeptides were very high, KD values were estimated by measuring steady-state response for at least five concentrations in a two-fold dilution series, each concentration tested in duplicate. For each experiment, response data were processed using a reference surface to correct for bulk refractive index changes and any non-specific binding. Data were also double referenced using responses from blank running buffer injections. Each experiment was conducted at 25° C. using PBST (0.01M Phosphate Buffered Saline, 0.138M NaCl, 0.0027M KCl, 0.05% surfactant Tween20, pH 7.4) as the running buffer on a Biacore T100 instrument. Analytes were injected for 60 s at a flow rate of 30 μl/min. The antigen surfaces were regenerated with 30 s consecutive pulses of NaOH/NaCl (50 mM NaOH in 1M NaCl) and Glycine (10 mM glycine-HCl, pH 2.5).

[3] = molecular target: TNF-α (Homo sapiens, UniProt P01375); assay: SPR of TNF1 lead and mutant peptides on captured TNF-α (Biacore A100); conditions: for Binding ΔG (observed): calculated from dissociation constants; for Predicted Binding ΔG: sum of component contributions, energetic additivity
Sequence of TNF-α (P01375 77-233 limits assumed, species assumed): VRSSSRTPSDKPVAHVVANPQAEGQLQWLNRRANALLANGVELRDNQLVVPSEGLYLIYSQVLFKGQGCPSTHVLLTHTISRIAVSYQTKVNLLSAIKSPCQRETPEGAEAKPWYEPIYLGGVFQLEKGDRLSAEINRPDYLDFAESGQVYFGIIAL
Text: Scanning Mutagenesis of the TNF1 Lead Peptide. After lead identification, the next step in the AMPLI algorithm is characterization of point mutations in the lead heteropolymer. Using short peptides makes it chemically feasible to synthesize a significant fraction of the point-mutant space, which can then be screened for enhanced point mutations. For example, all possible point mutations in the 17 randomized positions using all 20 natural amino acids could be synthesized and screened within a single 384-well plate (323 total point-mutants). However, libraries containing all 20 natural amino acids are not required for affinity optimization of protein-protein interactions. A library of TNF1 point-mutants containing all substitutions of the amino acid set {Y, A, D, S, K, N, V, W} in each of the 17 randomized positions (132 unique point-mutants) was synthesized. Tyrosine (Y), alanine (A), aspartic acid (D) and serine (S) were selected because of their effectiveness in producing high affinity interactions when substituted into the complementary-determining regions (CDRs) of synthetic antibodies (Felouse, Proceedings of the National Academy of Sciences 101(34):12467, 2004), lysine (K) was selected to balance the charge in the substitution set, asparagine (N), valine (V) and tryptophan (W) were selected to span the hydropathicity range (Kyte J & Doolittle R F, Journal of Molecular Biology 157(1):105-132, 1982). […] This concentration was used to increase the high-end dynamic range for quantifying enhancing point mutations at the expense of low-end dynamic range for quantifying detrimental point mutations.
Point-mutant libraries were prepared in 96-well stock plates From the stock plate, peptides were diluted to 50 μM concentration in Biacore HBS-EP buffer (GE Healthcare, Piscataway, N.J.) containing 1 mg/ml carboxymethyl-dextran (Sigma-Aldrich, St. Louis, Mo.) to reduce non-specific binding to the CM-5 SPR chip surface. TNF-α was captured on a CM-5 chip surface at different capture levels on spots 1, 2, 4, and 5 across all four flow cells corresponding to a 40-200 RU range of predicted Rmax binding responses. Spot 3 contained only immobilized neutravidin and served as a reference spot.
Using the prepared 96-well plates and Biacore A100 SPR instrument, four peptides were flowed separately, in parallel, through the four flow cells over all 4 TNF-α spots and the neutravidin reference spot, with a 60 second association phase and 300 second dissociation phase. SPR sensorgrams were recorded for each peptide response with all 4 TNF-α spots and the neutravidin reference spot across the four flow cells on the SPR chip. Surface regeneration was performed after every 12 injections in each flow cell with Biacore Glycine 2.5 regeneration solution (GE Healthcare, Piscataway, N.J.). Point-mutant reference subtracted, peptide molecular weight adjusted, responses at the late binding region of the sensorgram (a few seconds before dissociation) were compared to the response of the TNF1 lead
Purified point-mutant affinities were measured on the Biacore A100 using SPR equilibrium binding response across a series of peptide concentrations on an SPR chip with TNF-α captured as described above.
These sequences were synthesized and purified using standard solid-phase FMOC synthesis and HPLC purification.

[4] = molecular target: T1, Transferrin; assay: SPR steady state affinity of mRNA display clones (Biacore T100); conditions: for Kd: steady state affinity model
Procedure: Five clones (see Table 15) were selected, synthesized and purified by HPLC for characterization by surface plasmon resonance (SPR) (T 100 instrument from Biacore). Transferrin was immobilized using standard NHS/EDC immobilization chemistry according to the methods described in Frostell-Karlsson, A., Remaeus, A., Andersson, K., Borg, P., Hamalainen, M., and Karlsson, R. (2000) J. Med. Chem. 43, resulting in 9758 RU of immobilized protein. HPLC purified peptides were injected over the surface and sensograms were recorded at multiple concentrations (32, 16, 8, 4, 2, 1, 0.5, 0.25, 0.125, and 0.0625 μM). Affinity plots were generated for each peptide and fit using a steady state affinity model.

[5] = molecular target: Tumor Necrosis Factor-alpha (TNF-α) (Homo sapiens, UniProt P01375); assay: Chromatographic affinity screening on protein-coupled pipette tips with MALDI readout; conditions: 500 nM each synbody in E. Coli Lysate
Sequence of Tumor Necrosis Factor-alpha (TNF-α) (P01375 77-233 limits assumed, species assumed): as above
Procedure: The target proteins, Transferrin (TRF) and Tumor Necrosis Factor-alpha (TNF-α), were each covalently attached to pipette tips (one protein per pipette tip) containing carboxymethyl dextran matrix (Intrinsic Bioprobes, Tempe, Ariz.) using standard amine coupling chemistry. The unmodified tips were first washed with 0.5 M HCl followed by acetone. Each tip was activated using a 50 mg/mL solution of […] (CDI) in N-methyl-pyrolidone (NMP). Each tip was washed with NMP to remove excess CDI. Each protein was prepared as a 50 μg/mL solution in 100 mM sodium acetate pH 5.0 and cycled through a CDI activated tip for 30 minutes. Un-reacted CDI in the tip was then quenched with the addition of 1.5 M ethanolamine pH 8.5 and then washed extensively with HBS-N buffer. The protein-coupled tips were then stored in HBS-N buffer at 4° C. Negative control tips were prepared in the same manner except that no protein was added to the sodium acetate solution during the protein coupling step.
A library of 14 candidate synbodies (Table 9) was prepared by making 12 μM stock solutions in 1× phosphate buffered saline (PBS) of each HPLC purified synbody and […] of each stock solution was added to 600 μL of E. Coli Lysate that had been treated with a protease inhibitor. Thus the final concentration of each synbody was 500 nM.
A negative control pipette tip (blank tip), a TRF tip, and a TNF-α tip, were washed with 0.1% sodium dodecyl sulfate (SDS) to remove any non-covalently bound protein and then washed with HBS buffer. The tips were then incubated for 15 minutes in 150 μL of the synbody library. Each tip was then washed 5 times in 150 μL of HBS-N. This step was then repeated and each tip was washed 5 times in 150 μL of 0.25 M NaCl. Each tip was then washed 5 times in 150 μL of Milli-Q water and this step was repeated. […]
Each elution sample was spotted onto a MALDI plate and analyzed in reflectron mode on a Bruker Daltonics UltraFlex III TOF/TOF MALDI Mass Spectrometer.

[6] = SPR equilibrium binding response, read-out: Kd (observed)
[7] = energetic additivity of component mutations, read-out: Predicted Kd

Rank -- prewash [1]: 603
Rank - non-prewash [1]: 736
Kd [2]: ~60 µM
Substance: APYAPQQIHYWSTLGFKGSC [TRF25]

Binding ΔG (observed) [3]: -5.21 ± 0.07 kcal/mol
Substance: FERDPLMMPWSFLQSRQGSC [TNF1]

Rank -- prewash [1]: 289
Rank - non-prewash [1]: 18
Substance: GQTQFAMHRFQQWYKIKGSC [TRF20]

Kd [4]: 150 µM
Substance: GHKVVPQRQMRHAYNRNGSC [TBPL025]

Rank -- prewash [1]: 61
Rank - non-prewash [1]: 711
Substance: HAYKGPGDMRRFNHSGMGSC [TRF22]

fold improvement of affinity in comparison to TRF26 [4]: more than 10 fold
Kd [4]: 11.6 µM
Substance: AHKVVPQRQMRHAYSRYGSC [TBPM023]

Rank -- prewash [1]: 958
Rank - non-prewash [1]: 71
Kd [2]: ~50 µM
Substance: SVKPWRPLITGNRWLNSGSC [TRF24]

Rank -- prewash [1]: 5
Rank - non-prewash [1]: 84
Kd [2]: ~60 µM
Substance: QYHHFMNLKRQGRAQAYGSC [TRF21]

Kd [4]: 150 µM
Substance: GHKVVPQRQIRHAYNRYGSC [TBPL005]

Rank -- prewash [1]: 9601
Rank - non-prewash [1]: 5010
Rank - non-prewash ([1]; listed as TRF-19): 5,010
Kd [2]: ~150 µM
Substance: KEDNPGYSSEQDYNKLDGSC [TRF19]

Rank -- prewash [1]: 3325
Rank - non-prewash [1]: 1289
Substance: LDPLFNTSIMVNWHRWMGSC [TRF27]

Second part, the substance before the results:

Substance: FERYPLMMPWSFLQSRQGSC [Synbody D4Y]
Component Binding ΔG Contribution [3]: -0.74 ± 0.10 kcal/mol
Kd Fold-Change Relative to Lead [3]: 3.6 ± 0.6
Kd [3, 6]: 44 ± 4.8 µM
Binding ΔG (observed) [3]: -5.95 ± 0.06 kcal/mol

Substance: FERSYLMMPWKFLQSRQGSC [D4S + P5Y + S11K]
Kd Fold-Change Relative to Lead [3]: 23 ± 3.2
observed binding energy difference to the D4S+P5Y+M7K+S11K quadruple mutant [3]: -0.94 ± 0.12 kcal/mol
Kd [3, 6]: 7 ± 0.5 µM
Binding ΔG (observed) [3]: -7.03 ± 0.04 kcal/mol
Kd [3, 7]: 2.8 to 5.3 µM
Predicted Binding ΔG [3]: -7.38 ± 0.19 kcal/mol

Substance: FERYPLKMPWSFLQSRQGSC [D4Y + M7K]
Kd Fold-Change Relative to Lead [3]: 9.4 ± 1.6
Kd [3, 6]: 17 ± 1.9 µM
Binding ΔG (observed) [3]: -6.54 ± 0.07 kcal/mol
Kd [3, 7]: 8.5 to 20 µM
Predicted Binding ΔG [3]: -6.66 ± 0.25 kcal/mol

Substance: FERDPLMMPWKFLQSRQGSC [Synbody S11K]
Component Binding ΔG Contribution [3]: -0.82 ± 0.13 kcal/mol
Kd Fold-Change Relative to Lead [3]: 3.9 ± 0.9
Kd [3, 6]: 40 ± 7.2 µM
Binding ΔG (observed) [3]: -6.03 ± -.10 kcal/mol

Substance: FERYPLMMPWKFLQSRQGSC [D4Y + S11K]
Kd Fold-Change Relative to Lead [3]: 17 ± 2.5
Kd [3, 6]: 9.3 ± 0.7 µM
Binding ΔG (observed) [3]: -6.67 ± 0.05 kcal/mol
Kd [3, 7]: 8 to 15 µM

Substance: TNF2-TNF3-KC-stBu: lysine-linked synbody (peptide 1 SMKMVQPGHLLISYGHQGSGKC(StBu); peptide 2 RTTEMPFVFALGSVHPGGSG; not fully specified)
MALDI peak in TNF-α tip elution (retention by target) [5]: showed a peak
